In patent US6750247B2, “Sponge-derived terpenoids and methods of use” (Galileo Laboratories, Inc., priority 2001, dated 2004):
Where a name gives a salt, the structure may show the parent alone.

Experiments:
[1] = system: primary hippocampal neuronal cells; test: Hippocampal anoxia-reoxygenation cell death assay; type: cell-based, mice; details: for Dose for Max. Activity / Percent Activity: 5 hr hypoxia, 20-24 hr reoxygenation; for Percent Activity: at dose for max. activity, live neurons by Cell Tracker Green; for cell viability: compared to hypoxia-reoxygenated cells
Description: Neurobasal medium (Life Technologies, Rockville, Md.) with 1× B27 supplement (Life Technologies), […], 25 μM L-glutaxnic acid, and 1× Penicillin/Streptomycin was prepared fresh prior to use. Hank's Basic Salt Solution (HBSS, Ca/Mg-free) was prepared by preparing 1× Hanks CMF (Gibco) supplemented with HEPES (10 mM, pH 7.3), sodium bicarbonate (0.35%), 1× Penicillin/Streptomycin, and 1 mM pyruvate. Poly-D-lysine (Sigma, St. Louis, Mo.) was prepared by filtering a 50 μg/ml solution through 0.2 μm filter tubes. Sigmacote (Sigma, St. Louis, Mo.). Plastic Culture Flasks (T75 cm^2) or 12-well cell culture plates were then treated with Poly-D-Lysine (Sigma, St. Louis, Mo.).
Pregnant female mice (E18-E19) were euthanized with CO2 prior to removal of the uterus, which was then placed in a sterile plastic petri dish. The embryos were removed from the sac, and the embryonic brains removed and immersed in cold (4° C.) Hepes Buffered Salt Solution (HBSS; Ca/Mg free; Life Technologies) in a small petri dish. Hippocampi were then removed from the brains under a dissecting microscope and were placed on a paraffin-covered dish. The meninges were stripped away and the dissected hippocampi were collected in a small petri dish in HBSS. The hippocampi were transferred to a 15-ml centrifuge tube (normally 10-12 brains per tube) filled with HBSS. The tube containing the brains was centrifuged at 1000 rpm for 2 minutes in a GH 3.8 A rotor in an Allegra Centrifuge (Beckman Instruments, Fullerton, Calif.). The supernatant was removed, 2 ml of HBSS was added to the hippocampi in the tube, and the resulting suspension was triturated 2 times each with long-tipped siliconized glass pipettes having progressively smaller apertures, starting with a pipette with a standard size opening (approximately 1.0 mm diameter), following with one having an aperture of half standard size (approximately 0.5 mm diameter), then with one having an aperture about one-half that size (0.25 mm diameter). The suspension was then centrifuged again at 1000 rpm for 2 min in a tabletop centrifuge, the supernatant was discarded, and 2 ml of Neurobasal/B27i (with antibiotics) was added to the tube. The trituration procedure described above was then repeated on this suspension.
The density of cells was determined on a small aliquot of cells using standard counting procedures and correcting for cell viability by trypan blue stain exclusion. Using this procedure, the expected yield is 3×10^5-6×10^5 cells/brain. Cells were then added to PDL-coated 12 well plates, flasks or MetTek dishes in Neurobasal/B27I at a density of about 1.5×10^6 cells (T75 flask) or about 100,000 cells/well of a 12-well plate. Plated cells were incubated at 37° C. with 5% CO2 in air atmosphere. Media was renewed after 3-4 days by replacing half of it with fresh Neurobasal/B27m medium, containing 5 μM cytosine arabinoside (AraC). Seven to eight days from the initial culture, the media was renewed again, by removing one-half or it and replacing with an equal amount of fresh Neurobasal/B27m medium (without Ara-C).
This assay was used to induce ischemia by anoxia-reoxygenation in cultured hippocampal neuronal cells. Test compounds were added to assess potency and efficacy against ischemia-induced neuronal cell injury and cell death.
Neurobasal media, NoG neurobasal media, B27 supplement and B27 Supplement minus AO were obtained from Life Technologies. Neurobasal/B27 medium was prepared with 2× B27 minus AO supplement, 0.5 mM L-glutamine and 0.25× penicillin/streptomycin. Cell Tracker Green was obtained from Molecular Probes and a fresh 5 μM solution was prepared from 10 mM stock just before use. NoG-Neurobasal contains NoG neurobasal medium plus 0.5 mM glucose, 0.1 mM L-glutamine and 0.25× Penicillin/Streptomycin. Primary hippocampal neuronal cells were prepared according to the methods described above and were cultured in poly-D-lysine coated 12 well plates for 10-11 days prior to use. […]

neonatal cardiomyocytes = test: Myocyte calcium-contractility assay (cardiomyocyte beating anoxia assay); type: cell-based, rat; details: 16 hr anoxia, 2 hr reoxygenation; for Percent Activity: at dose for max. activity, Fluo-4 fluorescence
Description: 10× Heart Dissection Solution (HDS) contains the following components (g/l) in tissue culture grade water: NaCl, 68; HEPES, 47.6; NaH2PO4, 2; Glucose, 10; KCl, 4; MgSO4, 1, pH adjusted to 7.4. Prior to filter sterilization of diluted (1× HDS) solution, 10 mg phenol red was added to each 500 milliliters of medium. Transferrin and Bovine Insulin were obtained from Life Technologies, and resuspended at a concentration of 4 mg/ml in tissue culture grade water. DMEM-F12- DMEM/F12, powder, 1:1 containing glutamine and pyridoxine hydrochloride was purchased from Life Technologies. To one liter equivalent of the powder was added 2.43 g of sodium bicarbonate and 10 ml of 100× Penicillin/Streptomycin in 950 ml of tissue culture grade water with stirring. The pH was adjusted to 7.2 with 1M HCl and volume was adjusted to 1 liter. The solution was filter sterilized then 2.5 ml of 4 mg/ml Transferrin, 250 μl 4 mg/ml Insulin and 30.7 mg of bromodeoxyuridine were added. DMEM-F12 was also prepared with 4% FBS for pre-coating the tissue culture plates and initial suspension of the cardiomyocyte pellet. Collagenase solution-49 mg of collagenase was resuspended in 120 ml 1× HDS.
Tissue culture plasticware was pre-coated with DMEM-F12-4% FBS by incubating 50 μl per well of a 96-well plate. Two-day old rat pups were removed from their mothers and placed in a sterile container. Pups were dipped quickly into 70% alcohol, then decapitated and the body was placed in an empty sterile tissue culture dish. An incision was made starting at the neck and progressing towards the belly, cutting through the sternum. The heart was removed and placed in a tissue culture dishes containing 1× HDS. The atria were trimmed, and the remaining ventricles were placed into a separate tissue culture dish containing 1× HDS, where they were sectioned into 3-4 pieces each. Ventricles were then transferred to a sterile 250 ml glass flask and the 1× HDS was removed. Twenty milliliters of pre-warmed collagenase solution were added to the ventricles, followed by incubation at 37° C. with shaking. After 30 minutes, the collagenase solution was removed and replaced with 20 ml fresh pre-warmed collagenase. Incubation was continued for an additional 20 minutes. At the end of the incubation, any tissue chunks were allowed to settle prior to removing the collagenase (containing the isolated cardiomyocytes) from the disrupted tissue pieces. The isolated myocytes were added to a 50 ml Falcon tube containing 2 ml Fetal Bovine Serum (FBS). The remaining tissue pieces were subjected to a second digestion by adding 20 ml fresh pre-warmed collagenase and incubating as above for 20 minutes. This second digest was then centrifuged at 1000 rpm for 10 minutes in a GH 3.8 A rotor in an Allegra 6 Centrifuge (Beckman Instruments, Fullerton, Calif.). The resulting supernatant was discarded, and the cell pellet was suspended with 4 ml FBS. The resulting cell suspension was placed in the incubator at 37° C. This step was repeated several additional times to harvest additional material.
Percoll gradients were prepared by adding 2.5 ml of 10× HDS to 22.5 ml of Percoll (Life Technologies) with mixing (Percoll Stock). Top Gradient solution (11 ml Percoll Stock and 14 ml 1× HDS) and Bottom Gradient solution (13 ml Percoll Stock and 7 ml 1× HDS) were prepared. Four milliliters of the Top Gradient solution were transferred into 6×15 ml sterile Falcon tubes. Three milliliters of the Bottom Gradient solution were placed in each tube by inserting a serological pipette to the bottom of the tube and slowly adding the liquid.
All the digests (5 in total) were pooled in one 50 ml Falcon tube and centrifuged on a tabletop Allegra 6 Centrifuge (Beckman Instruments, Fullerton, Calif.) using a GH 3.8 A rotor at 1000 rpm for 10 minutes. The supernatant was discarded, and the cell pellet was resuspended in 12 ml of 1× HDS. Two milliliters of the cell suspension was added to the top of each gradient. […]

[2] = target: T1, 15-human lipoxygenase (15-HLO) (Homo sapiens, UniProt P16050); test: 15-human lipoxygenase (15-HLO) inhibition assay; type: biochemical; details: 3 μM linoleic acid, pH 7.5, approx. 22° C.
T1 construct: made in house
T1 sequence (P16050 1-662): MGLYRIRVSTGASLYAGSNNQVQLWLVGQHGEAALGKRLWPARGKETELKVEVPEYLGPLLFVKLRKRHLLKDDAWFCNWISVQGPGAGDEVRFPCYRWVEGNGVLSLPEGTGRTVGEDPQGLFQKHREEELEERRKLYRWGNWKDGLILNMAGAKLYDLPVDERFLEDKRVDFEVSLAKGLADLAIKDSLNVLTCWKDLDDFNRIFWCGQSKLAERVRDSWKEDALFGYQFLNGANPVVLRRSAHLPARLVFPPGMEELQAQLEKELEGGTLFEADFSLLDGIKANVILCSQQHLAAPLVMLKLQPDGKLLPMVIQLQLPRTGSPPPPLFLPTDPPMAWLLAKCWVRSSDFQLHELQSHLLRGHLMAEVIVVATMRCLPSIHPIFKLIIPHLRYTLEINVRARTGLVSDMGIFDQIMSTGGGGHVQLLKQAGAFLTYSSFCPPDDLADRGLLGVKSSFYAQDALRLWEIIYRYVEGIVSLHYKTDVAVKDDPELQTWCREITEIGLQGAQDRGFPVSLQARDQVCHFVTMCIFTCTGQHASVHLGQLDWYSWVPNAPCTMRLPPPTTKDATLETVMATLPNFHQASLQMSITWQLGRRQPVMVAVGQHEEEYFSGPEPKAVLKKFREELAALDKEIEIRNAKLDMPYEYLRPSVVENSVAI
Description: 15-human lipoxygenase (15-HLO) was expressed and purified as described by Holman et al., J. Am. Chem. Soc. […] 15-HLO enzyme activity was determined by direct measurement of the product formation of a 3 μM linoleic acid solution by monitoring the increase of absorbance at 234 nm in 25 mM Hepes (pH 7.5), 0.2% (g/L) cholic acid. All reactions were performed in 2 ml of buffer (approx. 200 nM 15-HLO) under constant stirring at approximately 22° C. IC50 values were determined by measuring the enzymatic rate at a variety of inhibitor concentrations (depending upon inhibitor potency) and plotting their corresponding values versus inhibitor concentration. The corresponding data was fit to a simple saturation curve and the inhibitor concentration at 50% activity was determined. The subject inhibitors used in the assay were dissolved in MeOH at a concentration of approximately 25 mg/ml.

Row | IC50 [2] [nM] | Structure (SMILES) | Dose for Max. Activity [1] [µg/mL] | Percent Activity [1] | cell viability [1] | Percent Activity (neonatal cardiomyocytes) | Dose for Max. Activity (neonatal cardiomyocytes) [µg/mL] | cell viability (neonatal cardiomyocytes)
1 |  | CC(=O)O[C@@H]1OC=C2[C@@H](OC(C)=O)C[C@H]3[C@]4(C)CC[C@@H]5C([C@H](C)CCC5(C)C)[C@H]4C[C@@H](O)[C@]3(C)[C@H]21 (some centres unmarked) [Heteronemin (13), 24,25-epoxy-17(24)-scalarene-12-ol-16,25-diacetate] | 0.1 | 21% | increased cell viability | No activity at 100 μg/mL |  | 
2 |  | CC(C)=CCC[C@@]1(C)CCC[C@]2(C)[C@@H](Cc3cc(C(=O)O)ccc3O)C(C)=CC[C@@H]12 [(−)-jaspic acid (4), 4-hydroxy-3-[2,5,8a-trimethyl-5-(4-methyl-pent-3-enyl)-1,4,4a,5,6,7,8,8a-octahydro-naphthalen-1-ylmethyl]-benzoic acid] | 1 | 63% | increased cell viability | 59% | 3 | increased cell viability
3 | 400 | CCCCCCCC/C=C\CCCCCCCCOS(=O)(=O)O [oleyl sulfate, reference compound] |  |  |  |  |  | 
4 |  | CC1CCC2C(=CCCC2(C)C)C1(C)CCC(CO)CCCc1ccoc1 (centres unmarked) [Halisulfate 7 alcohol (8), 5-furan-3-yl-2-[2-(1,2,5,5-tetramethyl-1,2,3,4,4a,5,6,7-octahydro-naphthalen-1-yl)-ethyl]-pentan-1-ol] |  | No activity at 10 μg/mL |  | No activity at 75 μg/mL |  | 
5 |  | CC(C)=CCC/C(C)=C/CCC1=CC(O)OC1=O (racemic) [Dictyodendrillin C (12), 3-(4,8-dimethyl-nona-3,7-dienyl)-5-hydroxy-5H-furan-2-one] |  |  |  | 46% | 100 | increased cell viability
6 |  | CC(C)=CCC/C(C)=C/CCC1=CC(=O)OC1O (racemic) [Dictyodendrillin B (11), 4-(4,8-dimethyl-nona-3,7-dienyl)-5-hydroxy-5H-furan-2-one] | 0.1 | 56% | increased cell viability | No activity at 100 μg/mL |  | 
